Data published in patent US7884242B2, “N-heterocyclylphthaldiamides as insecticides” (Bayer CropScience AG, priority 2004, dated 2011).

Experiments:
[1] = tested on: green peach aphid (Myzus persicae); assay: Myzus test (spray treatment); type: in vivo; details: for pest or weed control at 100 g/ha: Myzus persicae, in Brassica oleracea, 120 h, spray treatment, China cabbage slices, after 5 d, read-out: Death rate in % after 5d; for activity in Myzus test (spray treatment): statement in words
Experimental: (§1) [table] For the preparation of a suitable active compound formulation 1 part by weight of the active compound is mixed with the above amounts of solvent and emulsifier and the concentrate is diluted to the desired concentration with water containing emulsifier. China cabbage slices (Brassica pekinensis) that are infected with all stages of the green peach aphid (Myzus persicae) are sprayed with an active compound preparation at the desired concentration. After the desired time the activity in % is determined. Here 100% means that all aphids were killed; 0% means that no aphids were killed.

[2] = tested on: caterpillars of the fall army worm (Spodoptera frugiperda); assay: Spodoptera frugiperda test (spray treatment); type: in vivo; details: for pest or weed control at 4 g/ha: Spodoptera frugiperda, 168 h, spray treatment, maize leaf sections, after 7 d, read-out: Death rate in % after 7d; for activity in Spodoptera frugiperda test (spray treatment): statement in words
Experimental: [table] For the preparation of a suitable active compound formulation 1 part by weight of the active compound is mixed with the above amounts of solvent and emulsifier and the concentrate is diluted to the desired concentration with water containing emulsifier. Maize leaf sections (Zea mays) are sprayed with an active compound preparation of the desired concentration and after drying infected with caterpillars of the fall army worm (Spodoptera frugiperda). After the desired time the activity in % is determined. Here 100% means that all caterpillars were killed; 0% means that no caterpillars were killed.

[3] = log P determination by HPLC on reverse phase column, pH 2.3; type: physicochemical; details: reverse phase HPLC column (C 18), reverse phase column (C 18), pH 2.3, 43° C.
Experimental: The determination of the log P values given in the above table and preparation examples is carried out in accordance with EEC directive 79/831 Annex V.A8 by HPLC (High Performance Liquid Chromatography) on a reverse phase column (C 18). Temperature: 43° C. The determination is carried out under acidic conditions at pH 2.3 with 0.1% aqueous phosphoric acid and acetonitrile as eluents; linear gradient of 10% acetonitrile to 95% acetonitrile. Calibration was is carried out with unbranched alkan-2-ones (with 3 to 16 carbon atoms) of known log P values (Determination of log P values by the retention times by linear interpolation between two sequential alkanones).

[4] = tested on: larvae of the mustard leaf beetle (Phaedon cochleariae); assay: Phaedon test (spray treatment); type: in vivo; details: for activity in Phaedon test (spray treatment): statement in words
Experimental: [table] For the preparation of a suitable active compound formulation 1 part by weight of the active compound is mixed with the above amounts of solvent and emulsifier and the concentrate is diluted to the desired concentration with water containing emulsifier. China cabbage slices (Brassica pekinensis) are sprayed with an active compound preparation of the desired composition and after drying infected with larvae of the mustard leaf beetle (Phaedon cochleariae). After the desired time the activity in % is determined. Here 100% means that all beetle larvae were killed; 0% means that no beetle larvae were killed.

[5] = tested on: cotton aphid (Aphis gossypii); assay: Aphis gossypii test; type: in vivo; details: for Death rate in % after 7d: cotton leaves immersed; for activity in Aphis gossypii test: statement in words
Experimental: as §1, with “Cotton leaves (Gossypium hirsutum) heavily infested with the cotton aphid (Aphis gossypii)” for “China cabbage slices (Brassica pekinensis) that”, “treated by immersion in” for “infected with all stages of”, “the” for “the green peach aphid (Myzus persicae) are sprayed with an”, “death rate” for “activity”

[6] = tested on: caterpillars of the diamond back moth (Plutella xylostella); assay: Plutella test; type: in vivo; details: for Death rate in % after 7d: cabbage leaves dipped; for activity in Plutella test: statement in words
Experimental: [table] For the preparation of a suitable active compound formulation 1 part by weight of the active compound is mixed with the above amounts of solvent and emulsifier and the concentrate is diluted to the desired concentration with water containing emulsifier. Cabbage leaves (Brassica oleracea) are treated by dipping into the active compound preparation of the desired concentration and infected with caterpillars of the diamond back moth (Plutella xylostella) while the leaves were still wet. After the desired time the death rate is determined as %. Here 100% means that all caterpillars were killed; 0% means no caterpillars were killed.

[7] = Phaedon cochleariae, 168 h, spray treatment, China cabbage slices, after 7 d, read-out: Death rate in % after 7d

In the case of `CSC[C@H](C)NC(=O)c1c(Br)cccc1C(=O)Nc1cnc(Cn2nc(C(F)(F)F)cc2C(F)(F)F)nc1C` [Example 18], the pest or weed control at 100 g/ha [1] is reported as 100%, the “activity in Myzus test (spray treatment)” value [1] is reported as “good activity” and the pest or weed control at 4 g/ha [2] is reported as 100%. For the same molecule, the “activity in Spodoptera frugiperda test (spray treatment)” value (from here on “activity in Spodoptera frugiperda test”) [2] was “good activity” and the chromatographic logP [3] was 3.44.

In the case of `Cc1nc(Cn2nc(C(F)(F)C(F)(F)F)nc2C(F)(F)F)ncc1NC(=O)c1cccc(Cl)c1C(=O)N[C@@H](C)C[S+](C)[O-]` (some centres unmarked) [Example 29], the pest or weed control at 100 g/ha [1] is reported as 100%, the “activity in Myzus test (spray treatment)” value [1] is reported as “good activity” and the pest or weed control at 4 g/ha [2] is reported as 100%. The “activity in Spodoptera frugiperda test” value [2] was “good activity” and the chromatographic logP [3] was 2.41.

In the case of `Cc1nc(Cn2nc(C(F)(F)F)cc2C(F)(F)F)ncc1NC(=O)c1cccc(Cl)c1C(=O)N[C@@H](C)CS(C)(=O)=O` [Example 34], the “activity in Myzus test (spray treatment)” value [1] is reported as “good activity”, the pest or weed control at 4 g/ha [2] is reported as 100% and the “activity in Spodoptera frugiperda test” value [2] is reported as “good activity”. The chromatographic logP [3] was 2.56.

With `Cc1nc(Cn2nc(C(F)(F)F)cc2C(F)(F)F)ccc1NC(=O)c1cccc(Cl)c1C(=O)N[C@@H](C)C[S+](C)[O-]` (stereo partly drawn) [Example 2, N^1-(6-{[3,5-bis(trifluoromethyl)-1H-pyrazol-1-yl]methyl}-2-methylpyridin-3-yl)-3-chloro-N^2-[(1S)-1-methyl-2-(methylsulphinyl)ethyl]phthalamide] the pest or weed control at 100 g/ha [1] was 100%, the “activity in Myzus test (spray treatment)” value [1] was “good activity” and the pest or weed control at 100 g/ha [4, 7] was 100%. The “activity in Phaedon test (spray treatment)” value (shortened to “activity in Phaedon test”) [4] was “good activity”, the pest or weed control at 4 g/ha [2] was 100% and the “activity in Spodoptera frugiperda test” value [2] was “good activity”.

In the case of `Cc1nc(Cn2nc(C(F)(F)F)cc2C(F)(F)F)ccc1NC(=O)c1cccc(I)c1C(=O)N[C@@H](C)C[S+](C)[O-]` (some centres unmarked) [Example 7], the pest or weed control at 100 g/ha [1] is reported as 90%, the “activity in Myzus test (spray treatment)” value [1] is reported as “good activity” and the pest or weed control at 100 g/ha [4, 7] is reported as 90%. The “activity in Phaedon test” value [4] was “good activity”, the pest or weed control at 4 g/ha [2] was 100% and the “activity in Spodoptera frugiperda test” value [2] was “good activity”. The chromatographic logP [3] was 2.42.

In the case of `CSC[C@H](C)NC(=O)c1c(I)cccc1C(=O)Nc1cnc(Cn2nc(C(F)(F)F)cc2C(F)(F)F)nc1C` [Example 19], the pest or weed control at 100 g/ha [1] is reported as 100%, the “activity in Myzus test (spray treatment)” value [1] is reported as “good activity” and the pest or weed control at 4 g/ha [2] is reported as 83%. The “activity in Spodoptera frugiperda test” value [2] was “good activity” and the chromatographic logP [3] was 3.55.

In the case of `Cc1nc(Cn2cc(C(F)(F)C(F)(F)F)c(C(F)(F)C(F)(F)F)n2)ncc1NC(=O)c1cccc(Cl)c1C(=O)N[C@@H](C)C[S+](C)[O-]` (some centres unmarked) [Example 65], the pest or weed control at 100 g/ha [1] is reported as 100%, the “activity in Myzus test (spray treatment)” value [1] is reported as “good activity” and the pest or weed control at 4 g/ha ([4]; Phaedon cochleariae, 168 h, 4 g/ha, spray treatment, China cabbage slices, after 7 d, read-out: Death rate in % after 7d) is reported as 100%. For the same molecule, the “activity in Phaedon test” value [4] was “good activity”, the “Death rate in % after 7d” value ([5]; 100 ppm) was 80% and the “activity in Aphis gossypii test” value [5] was “good activity”. The pest or weed control at 4 g/ha [2] was 100%, the “activity in Spodoptera frugiperda test” value [2] was “good activity” and the chromatographic logP [3] was 2.91.

With `CSC[C@H](C)NC(=O)c1c(Cl)cccc1C(=O)Nc1ccc(Cn2nc(C(F)(F)F)cc2C(F)(F)F)nc1C` [Example 1, N^1-(6-{[3,5-bis(trifluoromethyl)-1H-pyrazol-1-yl]methyl}-2-methylpyridin-3-yl)-3-chloro-N^2-[(1S)-1-methyl-2-(methylthio)ethyl]phthalamide] the pest or weed control at 100 g/ha [1] was 100%, the “activity in Myzus test (spray treatment)” value [1] was “good activity” and the pest or weed control at 100 g/ha [4, 7] was 100%. For the same molecule, the “activity in Phaedon test” value [4] was “good activity”, the pest or weed control at 4 g/ha [2] was 100% and the “activity in Spodoptera frugiperda test” value [2] was “good activity”.

For `Cc1nc(Cn2nc(C(F)(F)F)nc2C(F)(F)F)ccc1NC(=O)c1cccc(Cl)c1C(=O)N[C@@H](C)C[S+](C)[O-]` (some centres unmarked) [Example 15], the pest or weed control at 100 g/ha [1] was 100%, the “activity in Myzus test (spray treatment)” value [1] was “good activity” and the pest or weed control at 100 g/ha [4, 7] was 100%. For the same molecule, the “activity in Phaedon test” value [4] was “good activity”, the pest or weed control at 4 g/ha [2] was 100% and the “activity in Spodoptera frugiperda test” value [2] was “good activity”. For the same molecule, the chromatographic logP [3] was 2.17.

With `CSC[C@H](C)NC(=O)c1c(I)cccc1C(=O)Nc1ccc(Cn2nc(C(F)(F)F)cc2C(F)(F)F)nc1C` [Example 6] the pest or weed control at 100 g/ha [1] was 100%, the “activity in Myzus test (spray treatment)” value [1] was “good activity” and the pest or weed control at 100 g/ha [4, 7] was 100%. The “activity in Phaedon test” value [4] was “good activity”, the “Death rate in % after 7d” value ([5]; 20 ppm) was 95% and the “activity in Aphis gossypii test” value [5] was “good activity”. The pest or weed control at 4 g/ha [2] was 100%, the “activity in Spodoptera frugiperda test” value [2] was “good activity” and the chromatographic logP [3] was 3.68. The “Death rate in % after 7d” value ([6]; 0.8 ppm) was 100% and the “activity in Plutella test” value [6] was “good activity”.

In the case of `CSC[C@H](C)NC(=O)c1c(Cl)cccc1C(=O)Nc1ccc(Cn2nc(C(F)(F)F)nc2C(F)(F)F)nc1C` [Example 14], the pest or weed control at 100 g/ha [1] is reported as 90%, the “activity in Myzus test (spray treatment)” value [1] is reported as “good activity” and the pest or weed control at 100 g/ha [4, 7] is reported as 90%. The “activity in Phaedon test” value [4] was “good activity”, the pest or weed control at 4 g/ha [2] was 100% and the “activity in Spodoptera frugiperda test” value [2] was “good activity”. The chromatographic logP [3] was 3.39.

For `CSC[C@H](C)NC(=O)c1c(Br)cccc1C(=O)Nc1cnc(Cn2nc(C(F)(F)C(F)(F)F)nc2C(F)(F)F)nc1C` [Example 31], the pest or weed control at 100 g/ha [1] was 100%, the “activity in Myzus test (spray treatment)” value [1] was “good activity” and the pest or weed control at 4 g/ha [2] was 100%. For the same molecule, the “activity in Spodoptera frugiperda test” value [2] was “good activity” and the chromatographic logP [3] was 3.67.

For `Cc1nc(Cn2nc(C(F)(F)F)nc2C(F)(F)F)ccc1NC(=O)c1cccc(I)c1C(=O)N[C@@H](C)C[S+](C)[O-]` (some centres unmarked) [Example 13], the pest or weed control at 100 g/ha [1] was 100%, the “activity in Myzus test (spray treatment)” value [1] was “good activity” and the pest or weed control at 100 g/ha [4, 7] was 100%. The “activity in Phaedon test” value [4] was “good activity”, the pest or weed control at 4 g/ha [2] was 100% and the “activity in Spodoptera frugiperda test” value [2] was “good activity”. For the same molecule, the chromatographic logP [3] was 2.28, the “Death rate in % after 7d” value ([6]; 0.16 ppm) was 95% and the “activity in Plutella test” value [6] was “good activity”.

In the case of `Cc1nc(Cn2nc(C(F)(F)F)cc2C(F)(F)F)ccc1NC(=O)c1cccc(I)c1C(=O)N[C@@H](C)CS(C)(=O)=O` [Example 8], the pest or weed control at 100 g/ha [1] is reported as 100%, the “activity in Myzus test (spray treatment)” value [1] is reported as “good activity” and the pest or weed control at 100 g/ha [4, 7] is reported as 100%. For the same molecule, the “activity in Phaedon test” value [4] was “good activity”, the pest or weed control at 4 g/ha [2] was 100% and the “activity in Spodoptera frugiperda test” value [2] was “good activity”. The chromatographic logP [3] was 2.8.

In the case of `CSC[C@H](C)NC(=O)c1c(Cl)cccc1C(=O)Nc1cnc(Cn2nc(C(F)(F)C(F)(F)F)nc2C(F)(F)F)nc1C` [Example 30], the pest or weed control at 100 g/ha [1] is reported as 90%, the “activity in Myzus test (spray treatment)” value [1] is reported as “good activity” and the pest or weed control at 4 g/ha [2] is reported as 100%. The “activity in Spodoptera frugiperda test” value [2] was “good activity” and the chromatographic logP [3] was 3.62.

With `Cc1nc(Cn2nc(C(F)(F)F)cc2C(F)(F)F)ncc1NC(=O)c1cccc(Br)c1C(=O)N[C@@H](C)C[S+](C)[O-]` (some centres unmarked) [Example 23] the pest or weed control at 100 g/ha [1] was 80%, the “activity in Myzus test (spray treatment)” value [1] was “good activity” and the chromatographic logP [3] was 2.2.
